Data reported in patent US20090162855A1, “Identification of Genetic Variants Associated with Increased Severity of Pulmonary Disease” (CASE WESTERN RESERVE UNIVERSITY, priority 2007, published 2009).
Square brackets hold non-standard residues; d marks the D form. Peptide text beside a SMILES is read from it.

Experiments:
[1] = test system: tracheal smooth muscle cells; assay: Mitogenic index by BrdU incorporation in primary cultures of tracheal smooth muscle cells; assay type: cell-based, human; details: for proliferation (BrdU incorporation), treated vs untreated: cultures from 9 individuals, estrogen 72 hrs
Source text: (§1) A cellular phenotype that could potentially explain the genotype-phenotype association is a difference in smooth muscle proliferation. To be able to assess this in vitro, we have carried out studies examining the mitogenic effects of the receptor agonist, endothelin, on cultured smooth muscle cells, as well as those of estrogen and Transforming Growth Factor Beta 1 (TGFβ1). In these studies, TGFβ1 is used as a control mitogen in that it exerts its effect on proliferation independent of the endothelin receptor. […] Primary cultures of tracheal smooth muscle cells from 4 individuals were treated with TGFβ1, estrogen, endothelin, or estrogen and endothelin (Estr/Endo) for 72 hrs, and assayed for mitogenic index by BrdU incorporation (FIG. 8A) or for cell number (FIG. 8B). Values shown are ratios of treated to untreated (control) cells grown simultaneously. Each cell line and condition was carried out in triplicate. […] An EDNRA antagonist, BQ123 (Sigma), was included at 1 μM to determine if EDNRA-mediated effects could be blocked.
A larger group of cell lines stratified by genotype was examined. Primary cultures of tracheal smooth muscle cells from 9 individuals were treated with estrogen for 72 hrs, assayed for BrdU incorporation and compared to control cultures (no estrogen). FIG. 9 provides the ratio of treated to untreated cells. […] Treatment with estrogen appears to result in increased proliferation, but the effect is genotype dependent. This is in contrast to other reports of vascular smooth muscle in which estrogen inhibits proliferation.

[2] = test system: tracheal smooth muscle cells; assay type: cell-based, human; details: cultures from 4 individuals, 72 hrs
Source text: as §1

[3] = test system: human ASM cells; assay: Actin stress fiber formation (TRITC-phalloidin) in cultured ASM cells; assay type: cell-based; details: cultured in presence of ET-1 for 24 hours; preliminary data
Source text: FIG. 11 is a pair of micrographs of cultured ASM cells placed in either serum free media (A) or media containing ET-1 (B) for 24 hr; and
EDNRA is expressed on airway and vascular smooth muscle. Using indirect immunocytochemical staining of human ASM cells from the trachealis muscle retrieved from necroscopy tissue of 53 individuals, we have determined these cells consistently display EDNRA on the cell membrane (FIG. 10—staining is predominantly along cell membranes). […] This implies a functional receptor with ligand binding and intact intracellular signaling pathways.

[4] = test system: smooth muscle cells; assay: Intracellular calcium mobilization from sarcoplasmic reticulum measured using Fura-2; assay type: cell-based; details: 24 hrs in endothelin, washout
Procedure: FIG. 12 is a graph showing the response of cultures of smooth muscle cells to endothelin-1 (ET-1) acutely (control) and sarcoplasmic reticulum release of calcium measured by Fura-2 fluorescence ratios.
Smooth muscle cells of various EDNRA genotype combinations were examined for changes in intracellular calcium in response to endothelin. The effects of chronic exposure were assessed by incubating the cells for 24 hrs in endothelin, followed by a brief washout (30 minutes) and then re-exposure to endothelin and measurement of calcium release. […] For these assays, intracellular calcium mobilization from sarcoplasmic reticulum was measured using Fura-2. No significant differences were observed between subjects with regards to magnitude or duration of response from acute stimulation (FIG. 12, control). However, if cultured for 24 hrs in the presence of endothelin, washed out just before reexposure, there is a significant difference between subjects in the magnitude of response (FIG. 12, ET-1 conditioned).

[5] = test system: EDNRA mRNA; assay: Quantitative RT-PCR of EDNRA mRNA in smooth muscle cell lines treated with estrogen; assay type: cell-based, human; details: 9 smooth muscle cell lines (5 female, 4 male), estrogen 24 hours, vs unstimulated cells, 18S rRNA internal control
Procedure: Effects of these variants on EDNRA mRNA levels were examined. Primary airway smooth muscle cells from 10 non-CF individuals were harvested for DNA and RNA. Airway smooth muscle cells were cultured from tracheas obtained from autopsy. Cells were isolated from human trachealis muscle by digesting with collagenase and elastase in the presence of soybean trypsin inhibitor at 37° C. as previously described. The cells were harvested by centrifugation after filtering through Nytex and grown in Dulbecco's modified eagle's medium (DMEM/F12 1:1) containing 10% fetal bovine serum, 100 U/ml penicillin and 100 μg/ml streptomycin at 37° C. in a humidified atmosphere with 5% CO2 and 95% air. DNA samples were genotyped for rs1801708 and rs5335 and EDNRA mRNA quantified from total RNA by real time RT-PCR. EDNRA mRNA was quantified relative to 18s rRNA in 10 airway smooth muscle cell lines and compared by genotype. RNA was isolated from airway smooth muscle cells using the Qiagen RNeasy kit. […] A Ct was established for each sample and compared to standard curves to determine mRNA quantity. […] Values are expressed as a ratio of EDNRA: 18s copies. […]
Nine smooth muscle cell lines were exposed to estrogen and mRNA levels compared to unstimulated cells. […] Quantitative RT-PCR was carried out to determine copy number using 18S rRNA as an internal control. […]

Compound: Transforming Growth Factor Beta 1 [TGFβ1]
- mitogenic index (BrdU incorporation), ratio of treated to untreated cells ([1]; cultures from 4 individuals, 72 hrs): tripled
- cell number, ratio of treated to untreated cells [2]: did not significantly alter cell number

Compound: CC[C@H](C)[C@H](NC(=O)[C@H](CC(=O)O)NC(=O)[C@H](CC(C)C)NC(=O)[C@H](Cc1c[nH]cn1)NC(=O)[C@@H]1CSSC[C@H](N)C(=O)N[C@@H](CO)C(=O)N[C@H]2CSSC[C@H](NC(=O)[C@H](CCC(=O)O)NC(=O)[C@H](CCCCN)NC(=O)[C@H](CC(=O)O)NC(=O)[C@H](CCSC)NC(=O)[C@H](CC(C)C)NC(=O)[C@H](CO)NC(=O)[C@H](CO)NC2=O)C(=O)N[C@@H](C(C)C)C(=O)N[C@@H](Cc2ccc(O)cc2)C(=O)N[C@@H](Cc2ccccc2)C(=O)N1)C(=O)N[C@H](C(=O)N[C@@H](Cc1c[nH]c2ccccc12)C(=O)O)[C@@H](C)CC [endothelin-1]
- formation of actin stress fibers [3]: increases the formation of actin stress fibers
- calcium release activity lost on re-exposure ([4]; cells with "adverse" genotypes): 10-15%
- calcium release activity on re-exposure, of pre-exposure activity ([4]; cells with "protective" genotype of 3′ markers): 15%

Compound: CC(C)C[C@@H]1NC(=O)[C@@H](C(C)C)NC(=O)[C@@H]2CCCN2C(=O)[C@@H](CC(=O)O)NC(=O)[C@@H](Cc2c[nH]c3ccccc23)NC1=O [BQ123] (cyclo(L[dW][dD]P[dV]))
- mitogenic index of cells with EDNRA antagonist included ([1]; BQ123 at 1 μM): reduced the mitogenic index

Compound: estrogen
- increase of EDNRA mRNA levels in response to hormone treatment [5]: approximately 5 fold
- proliferation (BrdU incorporation), treated vs untreated ([1]; cells with "protective" GG genotype): no effect
- proliferation (BrdU incorporation), treated vs untreated ([1]; cells with "severe" AA genotype): increase proliferation
